The values below come from paper PMC12051620, “Molecular basis underlying the specificity of an antagonist AA92593 for mammalian melanopsins” (The Journal of Biological Chemistry, 2025).

The target in this experiment is lanceolatum melanopsin F189^ECL2W/I207^5.42F mutant (Branchiostoma lanceolatum, UniProt A0A2Z4C1D4, F188W/I204F). The experiment can be described thus: GsX GloSensor assay with Gsα/q11. It is filed as cell-based. The text has this: We assessed the effect of the antagonist on the mutants using the GsX GloSensor assay with Gsα/q11. […] Furthermore, the double substitution F189^ECL2W/I207^5.42F further increased the susceptibility of the lanceolatum melanopsin to the antagonist by ∼88% (Fig. 7, G, H, and I). The AA92593-induced inhibition of the double mutant F189^ECL2W/I207^5.42F was as efficient as that of human melanopsin (Fig. 7I). […] Taken together, the introduction of Trp-189^ECL2 and Phe-207^5.42 rendered lanceolatum melanopsin highly sensitive to the antagonist (Fig. 7, G, H, and I).
For GloSensor assay, opsins, GloSensor assay sensor (coded by pGlo-22F), and NanoBiT-tagged G proteins were transiently expressed in COS-1 cells (kindly provided from Dr David Farrens, Oregon Health and Science University) using PEI as described previously ([24], [52]). For the GsX GloSensor assay ([12], [13]), each well of a 96-well assay plate (Corning) was transfected with 50 ng opsin plasmid, 16.7 ng G protein plasmid, 50 ng pGlo-22F plasmid (Promega), and 500 ng PEI in 25 μl Opti-mem and 75 μl Dulbecco's modified Eagle's medium (D-MEM). For NanoBiT G protein dissociation assay, each well of a 96-well assay plate was transfected with 50 ng opsin plasmid, 5 ng Lg-BiT inserted Gqα (Gqα-LgBiT) plasmid, 25 ng Gβ1 plasmid, 25 ng Sm-BiT fused Gγ2 plasmid, 5 ng RIC8A plasmid, and 500 ng PEI in 25 μl Opti-mem and 75 μl D-MEM. For GFP-fluorescence microscopy, a 35-mm cell culture dish (IWAKI) was transfected with 2 μg melanopsin-GFP plasmid and 8 μg PEI in 400 μl Opti-mem and 1.2 ml D-MEM. […]
The transfected COS-1 cells were incubated at 37 °C, 5% CO2 for 2 days, and the medium was aspirated and exchanged with 50 μl of HBSS (145 mM NaCl, 10 mM D-glucose, 5 mM KCl, 1 mM MgCl2, 1.7 mM CaCl2, 1.5 mM NaHCO3, 10 mM Hepes, pH 7.4), containing 33.3, 20, 10, 2, 0.2, 0.02, 0.002, or 0 μM AA92593, 0.5% dimetyl sulfoxide (DMSO), and 4% (vol/vol) GloSensor cAMP reagent stock solution. […] Then, the cells were incubated at room temperature for 1 h, and luminescence changes were monitored. After incubation of the cells with AA92593, luminescence measurement was interrupted, the plate was ejected, and the cells were added with 50 μl of HBSS containing 0.2 μM 9-cis-retinal. […] Luminescence was measured using GM-2000 or GM-3510 microplate reader (Promega). Luminescence level of each well was measured every 30 s with integration time of 0.6 to 0.9 s. To illuminate opsins, luminescence measurement was interrupted, the plate was ejected, and the plate was illuminated by white light with CN-160 LED video light (light intensity, ∼9 mW/cm^2) (NEEWER). […] After illumination, luminescence measurement was resumed. The measured luminescence levels were normalized to the level at the starting point (time = 0 min). […]

[1] abbreviates: relative peak cAMP response vs no AA92593.

Chain of lanceolatum melanopsin F189^ECL2W/I207^5.42F mutant (A0A2Z4C1D4 entry or part of it F188W/I204F): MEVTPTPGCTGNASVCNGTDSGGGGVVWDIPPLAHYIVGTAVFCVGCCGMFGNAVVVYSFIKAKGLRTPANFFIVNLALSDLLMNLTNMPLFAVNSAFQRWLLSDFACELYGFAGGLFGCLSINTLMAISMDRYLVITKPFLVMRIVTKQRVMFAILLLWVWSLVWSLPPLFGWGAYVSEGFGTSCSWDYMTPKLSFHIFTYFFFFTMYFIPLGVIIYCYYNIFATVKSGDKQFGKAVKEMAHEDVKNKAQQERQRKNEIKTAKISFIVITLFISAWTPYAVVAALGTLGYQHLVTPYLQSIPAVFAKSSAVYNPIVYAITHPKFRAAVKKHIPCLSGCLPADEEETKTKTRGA

In general, IC50 refers to the midpoint of a concentration-inhibition curve. A higher IC50 goes with weaker potency in that assay. With `COc1ccc(S(=O)(=O)N2CCCCC2)cc1C` [AA92593], the “Hill fitting parameter rate of dose-response curve” value is −0.84 ± 0.75 and inhibition was half-maximal at 1.4 ± 0.88 µM (IC50). Besides, under setting [1], the “Hill fitting parameter max of dose-response curve” value stood at 107.65 ± 12.6 and the “Hill fitting parameter min of dose-response curve” value was −5.22 ± 4.53.
